The supplement of paper PMC11451515

What was measured:
Settings in all cases: 48 h
[1] = tested on: NOMO1; test: cell viability relative to DMSO control; higher = less cytotoxic
In short: (§1)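 NOMO1, SEM and P12-Ichikawa leukemia cells spent at least four passages adapting to each medium before use. They were seeded at 500 cells/well (NOMO1, SEM) or 1000 cells/well (P12-Ichikawa) in 5 μl in 1536-well plates and pin-dosed with library compounds in DMSO at 11 threefold steps from 47 μM down to 0.79 nM. After 48 h at 37°C, CellTiter-Glo One luminescence was read. Viability is reported as a percentage of the DMSO wells on each plate, with cell-free wells as background.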

[2] = tested on: SEM cells; test: as above
In short: as §1

[3] = tested on: P12-Ichikawa; test: as above
In short: as §1

[4] = tested on: NOMO1; test: AUC of viability dose-response curve (% viability x log10 dose units); higher = less sensitive
In short: (§2)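 Medium-adapted leukemia cells in 1536-well plates, at 500 or 1000 cells/well, were incubated for 48 h at 37°C with library compounds in DMSO at 11 threefold doses from 47 μM to 0.79 nM. CellTiter-Glo One luminescence normalised per plate to DMSO and cell-free wells was fitted with a four-parameter log-logistic model over log10 doses. Area under the curve was integrated from this fit by trapezoidal rule, with curves beyond full viability scaled and failed quality-control curves removed.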

[5] = tested on: SEM cells; test: as above
In short: as §2

[6] = tested on: P12-Ichikawa; test: as above
In short: as §2

N#C/C(=C1/Nc2ccccc2S1)c1ccnc(OCc2ccc(CN3CCOCC3)cc2)n1
cell viability [%]
Settings | [1] | [2] | [3]
HPLM + 10% dialyzed FBS, 0.000781 µM | 104 | 103 | 106
HPLM + 10% dialyzed FBS, 0.00234 µM | 120 | 97.2 | 105
HPLM + 10% dialyzed FBS, 0.00702 µM | 97.1 | 112 | 110
HPLM + 10% dialyzed FBS, 0.0211 µM | 127 | 101 | 112
HPLM + 10% dialyzed FBS, 0.0632 µM | 122 | 109 | 110
HPLM + 10% dialyzed FBS, 0.19 µM | 122 | 108 | 119
HPLM + 10% dialyzed FBS, 0.569 µM | 107 | 106 | 109
HPLM + 10% dialyzed FBS, 1.71 µM | 84.9 | 100 | 110
HPLM + 10% dialyzed FBS, 5.12 µM | 86 | 121 | 105
HPLM + 10% dialyzed FBS, 15.4 µM | 25.2 | 108 | 40.1
HPLM + 10% dialyzed FBS, 46.1 µM | 27.5 | 99.3 | 37.1
RPMI 5 mM glucose + 10% FBS, 0.000781 µM | 104 | 114 | 103
RPMI 5 mM glucose + 10% FBS, 0.00234 µM | 109 | 98.1 | 105
RPMI 5 mM glucose + 10% FBS, 0.00702 µM | 105 | 107 | 116
RPMI 5 mM glucose + 10% FBS, 0.0211 µM | 117 | 115 | 109
RPMI 5 mM glucose + 10% FBS, 0.0632 µM | 113 | 99.4 | 111
RPMI 5 mM glucose + 10% FBS, 0.19 µM | 115 | 115 | 109
RPMI 5 mM glucose + 10% FBS, 0.569 µM | 109 | 115 | 118
RPMI 5 mM glucose + 10% FBS, 1.71 µM | 101 | 117 | 109
RPMI 5 mM glucose + 10% FBS, 5.12 µM | 103 | 102 | 102
RPMI 5 mM glucose + 10% FBS, 15.4 µM | 13.4 | 110 | 28.8
RPMI 5 mM glucose + 10% FBS, 46.1 µM | 13.7 | 87.7 | 33.1
RPMI 5 mM glucose + 10% dialyzed FBS, 0.000781 µM | 112 | 85 | 101
RPMI 5 mM glucose + 10% dialyzed FBS, 0.00234 µM | 105 | 84.4 | 106
RPMI 5 mM glucose + 10% dialyzed FBS, 0.00702 µM | 96 | 118 | 106
RPMI 5 mM glucose + 10% dialyzed FBS, 0.0211 µM | 120 | 110 | 93.1
RPMI 5 mM glucose + 10% dialyzed FBS, 0.0632 µM | 109 | 111 | 105
RPMI 5 mM glucose + 10% dialyzed FBS, 0.19 µM | 114 | 100 | 104
RPMI 5 mM glucose + 10% dialyzed FBS, 0.569 µM | 111 | 113 | 108
RPMI 5 mM glucose + 10% dialyzed FBS, 1.71 µM | 99 | 113 | 107
RPMI 5 mM glucose + 10% dialyzed FBS, 5.12 µM | 86 | 104 | 102
RPMI 5 mM glucose + 10% dialyzed FBS, 15.4 µM | 18 | 109 | 44.5
RPMI 5 mM glucose + 10% dialyzed FBS, 46.1 µM | 14.6 | 87.8 | 38.6

AUC of viability dose-response curve
Settings | [4] | [5] | [6]
HPLM + 10% dialyzed FBS | 399 | 468 | 429
RPMI 5 mM glucose + 10% FBS | 412 | 472 | 422
RPMI 5 mM glucose + 10% dialyzed FBS | 407 | 461 | 434

CCOCC(O)COc1ccc(NC(=O)CC[S+](C)C)cc1 (configuration not stated)
cell viability [%]
Settings | [1] | [2] | [3]
HPLM + 10% dialyzed FBS, 0.000781 µM | 91.1 | 88.2 | 87.3
HPLM + 10% dialyzed FBS, 0.00234 µM | 84.9 | 77.9 | 82.5
HPLM + 10% dialyzed FBS, 0.00702 µM | 106 | 93.7 | 87.9
HPLM + 10% dialyzed FBS, 0.0211 µM | 98.4 | 90.5 | 96
HPLM + 10% dialyzed FBS, 0.0632 µM | 93.1 | 94.2 | 91.9
HPLM + 10% dialyzed FBS, 0.19 µM | 92.4 | 93.5 | 88.1
HPLM + 10% dialyzed FBS, 0.569 µM | 110 | 106 | 98.5
HPLM + 10% dialyzed FBS, 1.71 µM | 107 | 91.9 | 98
HPLM + 10% dialyzed FBS, 5.12 µM | 97 | 109 | 93.7
HPLM + 10% dialyzed FBS, 15.4 µM | 107 | 107 | 99
HPLM + 10% dialyzed FBS, 46.1 µM | 98.5 | 84.8 | 95
RPMI 5 mM glucose + 10% FBS, 0.000781 µM | 77.9 | 77.9 | 88.2
RPMI 5 mM glucose + 10% FBS, 0.00234 µM | 87.1 | 92.1 | 90.5
RPMI 5 mM glucose + 10% FBS, 0.00702 µM | 86.7 | 85.9 | 93
RPMI 5 mM glucose + 10% FBS, 0.0211 µM | 86.7 | 80.9 | 97.9
RPMI 5 mM glucose + 10% FBS, 0.0632 µM | 87.3 | 85.2 | 91.3
RPMI 5 mM glucose + 10% FBS, 0.19 µM | 82.1 | 103 | 95.9
RPMI 5 mM glucose + 10% FBS, 0.569 µM | 89.7 | 95.3 | 95.9
RPMI 5 mM glucose + 10% FBS, 1.71 µM | 80.8 | 76.7 | 97.3
RPMI 5 mM glucose + 10% FBS, 5.12 µM | 91 | 106 | 94.4
RPMI 5 mM glucose + 10% FBS, 15.4 µM | 94.3 | 104 | 104
RPMI 5 mM glucose + 10% FBS, 46.1 µM | 84.2 | 72.2 | 92.3
RPMI 5 mM glucose + 10% dialyzed FBS, 0.000781 µM | 82.1 | 76.2 | 85.3
RPMI 5 mM glucose + 10% dialyzed FBS, 0.00234 µM | 81.8 | 88.3 | 74.7
RPMI 5 mM glucose + 10% dialyzed FBS, 0.00702 µM | 78.1 | 82.6 | 88.7
RPMI 5 mM glucose + 10% dialyzed FBS, 0.0211 µM | 96.5 | 73.5 | 88.8
RPMI 5 mM glucose + 10% dialyzed FBS, 0.0632 µM | 90.6 | 91.2 | 82.7
RPMI 5 mM glucose + 10% dialyzed FBS, 0.19 µM | 90.7 | 96.8 | 91.3
RPMI 5 mM glucose + 10% dialyzed FBS, 0.569 µM | 86.3 | 95.9 | 89.5
RPMI 5 mM glucose + 10% dialyzed FBS, 1.71 µM | 84.4 | 102 | 84.6
RPMI 5 mM glucose + 10% dialyzed FBS, 5.12 µM | 95.3 | 107 | 85.6
RPMI 5 mM glucose + 10% dialyzed FBS, 15.4 µM | 80.1 | 112 | 88
RPMI 5 mM glucose + 10% dialyzed FBS, 46.1 µM | 85.9 | 72.1 | 78.8

AUC of viability dose-response curve
Settings | [4] | [5] | [6]
HPLM + 10% dialyzed FBS | 460 | 451 | 442
RPMI 5 mM glucose + 10% FBS | 411 | 424 | 452
RPMI 5 mM glucose + 10% dialyzed FBS | 413 | 433 | 408

Clc1ccc2ncc(-c3cccc(NC4CNC4)n3)n2c1
cell viability [%], [2]
Settings | HPLM + 10% dialyzed FBS | RPMI 5 mM glucose + 10% FBS
0.000781 µM | 120 | 119
0.00234 µM | 121 | 122
0.00702 µM | 125 | 131
0.0211 µM | 125 | 121
0.0632 µM | 136 | 147
0.19 µM | 122 | 141
0.569 µM | 115 | 119
1.71 µM | 113 | 115
5.12 µM | 77.5 | 105
15.4 µM | 67.1 | 76.9
46.1 µM | 45.8 | 47.6

AUC of viability dose-response curve
Settings | [4] | [5] | [6]
HPLM + 10% dialyzed FBS | 433 | 412 | 441
RPMI 5 mM glucose + 10% FBS | 455 | 427 | 439
RPMI 5 mM glucose + 10% dialyzed FBS | 443 | 411 | 443
